Columns and labels:
Format in all cases: cell-based
human TLR7 = target: T1, human TLR7 (Homo sapiens, UniProt Q9NYK1); test: TLR7 inhibition reporter assay (HEK-Blue cells, SEAP reporter, gardiquimod stimulation); settings: HEK-Blue cells overexpressing human TLR7, SEAP reporter, gardiquimod 7.5 μM; read-out: TLR7 IC50
T1 construct: host or cells: HEK-Blue cells
T1 sequence (Q9NYK1 27-1049): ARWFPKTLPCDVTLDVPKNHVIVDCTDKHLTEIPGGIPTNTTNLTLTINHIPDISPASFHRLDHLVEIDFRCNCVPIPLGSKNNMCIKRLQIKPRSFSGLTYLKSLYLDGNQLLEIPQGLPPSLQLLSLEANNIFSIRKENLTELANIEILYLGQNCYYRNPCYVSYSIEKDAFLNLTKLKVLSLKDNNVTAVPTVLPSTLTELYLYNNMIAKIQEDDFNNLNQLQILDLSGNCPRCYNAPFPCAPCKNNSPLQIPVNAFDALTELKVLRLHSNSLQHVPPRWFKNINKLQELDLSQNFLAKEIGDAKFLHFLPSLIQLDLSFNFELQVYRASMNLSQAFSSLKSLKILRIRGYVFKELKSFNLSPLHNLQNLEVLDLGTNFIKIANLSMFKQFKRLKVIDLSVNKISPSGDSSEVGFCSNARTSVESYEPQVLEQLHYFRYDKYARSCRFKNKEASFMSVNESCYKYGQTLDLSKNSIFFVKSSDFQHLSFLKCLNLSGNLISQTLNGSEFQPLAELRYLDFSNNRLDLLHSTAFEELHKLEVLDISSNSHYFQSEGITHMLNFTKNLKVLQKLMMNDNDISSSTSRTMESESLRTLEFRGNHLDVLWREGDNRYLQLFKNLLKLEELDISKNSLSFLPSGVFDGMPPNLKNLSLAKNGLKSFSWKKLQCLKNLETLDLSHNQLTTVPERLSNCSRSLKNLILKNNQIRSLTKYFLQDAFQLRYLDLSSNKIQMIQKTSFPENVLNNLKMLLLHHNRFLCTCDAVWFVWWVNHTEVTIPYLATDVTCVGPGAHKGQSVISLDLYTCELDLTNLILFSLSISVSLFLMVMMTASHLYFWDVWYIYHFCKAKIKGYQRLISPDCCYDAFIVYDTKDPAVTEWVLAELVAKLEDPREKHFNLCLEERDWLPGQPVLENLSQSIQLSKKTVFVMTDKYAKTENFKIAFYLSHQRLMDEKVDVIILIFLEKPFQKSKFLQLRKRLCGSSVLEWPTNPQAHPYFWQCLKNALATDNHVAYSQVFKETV
Method in brief: (§1)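 Agonists used: gardiquimod 7.5 μM (TLR7), R848 15.9 μM (TLR8), ODN2006 5 nM (TLR9), added after 30 min room-temperature compound pre-treatment (0.05 nM–50 μM) of receptor-overexpressing HEK-Blue cells. SEAP reporter (NF-κB/AP-1 driven) read after 22 h at 37 °C; inhibition scaled between agonist+DMSO and reference-inhibitor wells.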

human TLR9 = target: T2, human TLR9 (Homo sapiens, UniProt Q9NR96); test: TLR9 inhibition reporter assay (HEK-Blue cells, SEAP reporter, ODN2006 stimulation); settings: HEK-Blue cells overexpressing human TLR9, SEAP reporter, ODN2006 5 nM
T2 construct: host or cells: HEK-Blue cells
T2 sequence (Q9NR96 26-1032): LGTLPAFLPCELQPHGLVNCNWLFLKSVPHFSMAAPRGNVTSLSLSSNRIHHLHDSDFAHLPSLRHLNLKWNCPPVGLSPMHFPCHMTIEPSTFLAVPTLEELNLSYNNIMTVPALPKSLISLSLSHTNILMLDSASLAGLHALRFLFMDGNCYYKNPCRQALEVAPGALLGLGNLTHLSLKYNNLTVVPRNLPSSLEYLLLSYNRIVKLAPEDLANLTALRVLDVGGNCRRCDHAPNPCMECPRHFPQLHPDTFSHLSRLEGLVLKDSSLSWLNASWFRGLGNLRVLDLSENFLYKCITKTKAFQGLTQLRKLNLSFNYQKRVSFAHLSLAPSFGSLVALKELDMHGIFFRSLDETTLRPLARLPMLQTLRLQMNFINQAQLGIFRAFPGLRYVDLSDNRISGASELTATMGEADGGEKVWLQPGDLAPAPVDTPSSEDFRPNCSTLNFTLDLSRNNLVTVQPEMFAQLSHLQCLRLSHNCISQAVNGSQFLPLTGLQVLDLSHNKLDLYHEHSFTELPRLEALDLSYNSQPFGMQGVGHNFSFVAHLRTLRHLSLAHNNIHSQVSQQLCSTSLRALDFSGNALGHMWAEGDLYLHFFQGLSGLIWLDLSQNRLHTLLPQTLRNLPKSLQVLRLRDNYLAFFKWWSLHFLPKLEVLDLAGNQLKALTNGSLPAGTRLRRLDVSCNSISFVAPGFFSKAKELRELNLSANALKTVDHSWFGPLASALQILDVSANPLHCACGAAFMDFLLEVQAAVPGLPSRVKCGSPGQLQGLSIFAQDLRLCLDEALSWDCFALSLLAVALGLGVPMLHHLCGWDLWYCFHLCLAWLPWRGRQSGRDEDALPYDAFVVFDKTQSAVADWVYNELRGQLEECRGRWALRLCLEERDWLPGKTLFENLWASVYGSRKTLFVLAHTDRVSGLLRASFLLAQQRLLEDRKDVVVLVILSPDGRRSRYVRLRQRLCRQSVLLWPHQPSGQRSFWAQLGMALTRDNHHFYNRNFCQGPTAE
Method in brief: as §1

human TLR8 = target: T3, human TLR8 (Homo sapiens, UniProt Q9NR97); test: TLR8 inhibition reporter assay (HEK-Blue cells, SEAP reporter, R848 stimulation); settings: HEK-Blue cells overexpressing human TLR8, SEAP reporter, R848 15.9 μM; read-out: TLR8 IC50
T3 construct: host or cells: HEK-Blue cells
T3 sequence (Q9NR97 27-1041): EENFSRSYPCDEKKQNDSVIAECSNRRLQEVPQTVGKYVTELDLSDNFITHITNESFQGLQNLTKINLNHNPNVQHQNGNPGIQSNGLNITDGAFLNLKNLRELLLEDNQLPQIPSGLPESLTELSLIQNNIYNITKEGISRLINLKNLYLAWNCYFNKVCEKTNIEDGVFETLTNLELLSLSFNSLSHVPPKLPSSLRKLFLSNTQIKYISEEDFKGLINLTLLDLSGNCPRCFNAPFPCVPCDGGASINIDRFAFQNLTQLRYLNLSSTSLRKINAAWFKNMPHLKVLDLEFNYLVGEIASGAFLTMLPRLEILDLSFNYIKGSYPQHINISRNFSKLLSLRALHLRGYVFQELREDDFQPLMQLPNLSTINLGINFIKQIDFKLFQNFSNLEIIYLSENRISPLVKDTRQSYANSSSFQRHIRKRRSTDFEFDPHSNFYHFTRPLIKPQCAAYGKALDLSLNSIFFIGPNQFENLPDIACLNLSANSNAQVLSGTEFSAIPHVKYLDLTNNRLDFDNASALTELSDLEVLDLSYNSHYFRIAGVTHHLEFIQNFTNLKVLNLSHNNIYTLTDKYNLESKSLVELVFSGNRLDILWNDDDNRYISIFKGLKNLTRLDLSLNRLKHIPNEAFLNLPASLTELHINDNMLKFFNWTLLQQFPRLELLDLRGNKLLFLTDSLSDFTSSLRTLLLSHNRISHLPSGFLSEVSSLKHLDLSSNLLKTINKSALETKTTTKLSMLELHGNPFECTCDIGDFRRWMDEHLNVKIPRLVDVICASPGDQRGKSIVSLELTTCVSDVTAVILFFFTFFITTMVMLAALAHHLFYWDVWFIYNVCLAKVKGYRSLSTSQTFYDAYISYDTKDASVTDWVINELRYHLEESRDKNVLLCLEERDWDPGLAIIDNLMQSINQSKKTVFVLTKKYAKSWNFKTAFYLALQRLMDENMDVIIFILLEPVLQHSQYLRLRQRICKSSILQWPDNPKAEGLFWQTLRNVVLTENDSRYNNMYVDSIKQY
Method in brief: as §1

Row | Structure (SMILES) | IC50 (human TLR7) [nM] | IC50 (human TLR9) [nM] | IC50 (human TLR8) [nM]
1 | Cc1c(-c2[nH]c3sc(N4CCN(CC(C)(C)O)CC4)nc3c2C(C)C)cn2ncnc2c1C [Example 281, 1-(4-(5-(7,8-dimethyl-[1,2,4]triazolo[1,5-a]pyridin-6-yl)-6-isopropyl-4H-pyrrolo[3,2-d]thiazol-2-yl)piperazin-1-yl)-2-methylpropan-2-ol] | 9.49 | 42600 | 0.45
2 | Cc1c(-c2[nH]c3sc(N4CCN(C5CCOCC5)CC4)nc3c2C(C)C)cn2ncnc2c1C [Example 287, 5-(7,8-dimethyl-[1,2,4]triazolo[1,5-a]pyridin-6-yl)-6-isopropyl-2-(4-(tetrahydro-2H-pyran-4-yl)piperazin-1-yl)-4H-pyrrolo[3,2-d]thiazole] | 13.3 | 29200 | 0.54
3 | Cc1c(-c2[nH]c3sc(N4CCN(C(C)C)CC4)nc3c2C(C)C)cn2ncnc2c1C [Example 288, 5-(7,8-dimethyl-[1,2,4]triazolo[1,5-a]pyridin-6-yl)-6-isopropyl-2-(4-isopropylpiperazin-1-yl)-4H-pyrrolo[3,2-d]thiazole] | 15.2 | 14200 | 0.52
4 | Cc1c(-c2[nH]c3sc(N4CCN(CC5(C)COC5)CC4)nc3c2C(C)C)cn2ncnc2c1C [Example 289, 5-(7,8-dimethyl-[1,2,4]triazolo[1,5-a]pyridin-6-yl)-6-isopropyl-2-(4-((3-methyloxetan-3-yl)methyl)piperazin-1-yl)-4H-pyrrolo[3,2-d]thiazole] | 5.19 | 19700 | 0.97
5 | Cc1c(-c2[nH]c3sc(N4CCC(NC5(C)COC5)CC4)nc3c2C(C)C)cn2ncnc2c1C [Example 290, 1-(5-(7,8-dimethyl-[1,2,4]triazolo[1,5-a]pyridin-6-yl)-6-isopropyl-4H-pyrrolo[3,2-d]thiazol-2-yl)-N-(3-methyloxetan-3-yl)piperidin-4-amine] | 8.56 | 22100 | 1.09
6 | Cc1c(-c2[nH]c3sc(N4CCC(NCC(C)(C)O)CC4)nc3c2C(C)C)cn2ncnc2c1C [Example 291, 1-((1-(5-(7,8-dimethyl-[1,2,4]triazolo[1,5-a]pyridin-6-yl)-6-isopropyl-4H-pyrrolo[3,2-d]thiazol-2-yl)piperidin-4-yl)amino)-2-methylpropan-2-ol] | 7.65 | 16800 | 0.39
7 | Cc1c(-c2[nH]c3sc(N4CCC(N(C)C(C)C)CC4)nc3c2C(C)C)cn2ncnc2c1C [Example 292, 1-(5-(7,8-dimethyl-[1,2,4]triazolo[1,5-a]pyridin-6-yl)-6-isopropyl-4H-pyrrolo[3,2-d]thiazol-2-yl)-N-isopropyl-N-methylpiperidin-4-amine] | 3.18 | 7520 | 0.46
8 | Cc1c(-c2[nH]c3sc(N4CCC(NC5CCC5)CC4)nc3c2C(C)C)cn2ncnc2c1C [Example 293, N-cyclobutyl-1-(5-(7,8-dimethyl-[1,2,4]triazolo[1,5-a]pyridin-6-yl)-6-isopropyl-4H-pyrrolo[3,2-d]thiazol-2-yl) piperidin-4-amine] | 2.98 | 6650 | 0.38
9 | COC(C)(C)CNC1CCN(c2nc3c(C(C)C)c(-c4cn5ncnc5c(C)c4C)[nH]c3s2)CC1 [Example 294, 1-(5-(7,8-dimethyl-[1,2,4]triazolo[1,5-a]pyridin-6-yl)-6-isopropyl-4H-pyrrolo[3,2-d]thiazol-2-yl)-N-(2-methoxy-2-methylpropyl)piperidin-4-amine] | 7.97 | 8990 | 0.42
10 | Cc1c(-c2[nH]c3sc(N4CCC(NCC5(C)COC5)CC4)nc3c2C(C)C)cn2ncnc2c1C [Example 295, 1-(5-(7,8-dimethyl-[1,2,4]triazolo[1,5-a]pyridin-6-yl)-6-isopropyl-4H-pyrrolo[3,2-d]thiazol-2-yl)-N-((3-methyloxetan-3-yl)methyl) piperidin-4-amine] | 4.94 | 9710 | 0.28
11 | Cc1c(-c2[nH]c3sc(N4CCC(NC5COC5)CC4)nc3c2C(C)C)cn2ncnc2c1C [Example 296, 1-(5-(7,8-dimethyl-[1,2,4]triazolo[1,5-a]pyridin-6-yl)-6-isopropyl-4H-pyrrolo[3,2-d]thiazol-2-yl)-N-(oxetan-3-yl)piperidin-4-amine] | 3.45 | 33800 | 0.73
12 | Cc1c(-c2[nH]c3sc(N4CCC(NC(C)C)CC4)nc3c2C(C)C)cn2ncnc2c1C [Example 297, 1-(5-(7,8-dimethyl-[1,2,4]triazolo[1,5-a]pyridin-6-yl)-6-isopropyl-4H-pyrrolo[3,2-d]thiazol-2-yl)-N-isopropylpiperidin-4-amine] | 2.25 | 8910 | 0.27

Reference: patent US20230139171A1 (SITA Information Networking Computing UK Limited, priority 2019, published 2023)
